Test results published in patent US9909086B2, “Green glycine betaine derivative compounds and compositions containing same” (priority 2012, dated 2018).

Experiments:
Surface tension = assay type: physicochemical; conditions: pure
Description: Surface properties of betainyl amino alkyl(ene) methane sulfonates and alkyl(ene) betainate methane sulfonate surfactants are set forth below in Table 5. […] Comparative examples are provided by the GLUCOPON surfactants (commercially available from BASF, formerly known as Cognis) which are alkyl polyglucosides having a carbon length as indicated.

[1] = Interfacial tension, emulsifying sunflower oil in water; assay type: physicochemical; conditions: purified
[2] = Wetting properties, contact angles on treated substrates; assay type: physicochemical
Foamability = assay type: physicochemical; conditions: concentration at CMC, flow rate 14 l/min
Description: The surfactants of the invention also have foaming ability. This foaming ability is able to be effectively manipulated, i.e., foaming density increased, based on hydrocarbon chain length.

[3] = Viscosity (thickening and gelling); assay type: physicochemical; conditions: aqueous solution
Description: Table 15 below illustrates the thickening of GB stearic amine aqueous solution as a function of concentration and time.
The examples of Table 15 are compounds present in water alone and, thus, the viscosity continues to change. After a certain point, the viscosity will plateau and not change anymore. If the surfactant is provided at a predetermined concentration, the desired viscosity will be reached right away and not continue to increase due to the stability provided. Thus, generally, as the surfactant concentration increases, so does the initial viscosity. Also over a period of time, the viscosity increases. The viscosity can be controlled to terminate the viscosity increase, i.e., achieve a pre-determined viscosity, by adding salts to the composition. Preferred salts are sodium chloride, potassium chloride, magnesium, chloride, and lithium chloride. Another feature of the invention is the ability to combine GB surfactants with natural polysaccharides to form gel and pseudoplastic viscous liquids or gels. Examples of polysaccharides are agar, carregenan, natural gum, pectin, gelatin, starch, cellulose derivatives, cellulose derived from wood pulp fiber, lignin, etc. […]

[4] = aqueous solution; 20 seconds contact time; pure
[5] = surfactant concentration 1 % w/w
[6] = surfactant concentration 2 % w/w
[7] = surfactant concentration 3 % w/w
[8] = surfactant concentration 4 % w/w
[9] = surfactant concentration 5 % w/w
[10] = surfactant concentration 6 % w/w

Row | Compound | Surface Tension @ CMC (Surface tension) | IFT [1] | Contact angle on treated substrate, Enamel Tiles ([2]; surfactant conc. 1 % (w/w)) | Contact angle on treated substrate, Glass ([2]; surfactant conc. 1 % (w/w)) | Contact angle on treated substrate, Kitchen Soil ([2]; surfactant conc. 1 % (w/w)) | Contact angle on treated substrate, Soap Scum ([2]; surfactant conc. 1 % (w/w)) | Contact angle on treated substrate, Enamel Tiles ([2]; surfactant conc. 3 % (w/w)) | Contact angle on treated substrate, Glass ([2]; surfactant conc. 3 % (w/w)) | Contact angle on treated substrate, Kitchen Soil ([2]; surfactant conc. 3 % (w/w)) | Contact angle on treated substrate, Soap Scum ([2]; surfactant conc. 3 % (w/w)) | also measured
1 | CCCCCCCCCCCCCCCCNC(=O)C[N+](C)(C)C.CS(=O)(=O)[O-] [GB Palmitic amide, Betainyl amino hexadecane methane sulfonate] | 37 mN/m | – | – | – | – | – | – | – | – | – | –
2 | CCCCCCCCCCCCNC(=O)C[N+](C)(C)C.CS(=O)(=O)[O-] [GB Lauric amide, Betainyl amino dodecane methane sulfonate] | 38 mN/m | – | – | – | – | – | – | – | – | – | –
3 | CCCCCCCCCCCCCCNC(=O)C[N+](C)(C)C.CS(=O)(=O)[O-] [GB Myristic amide, Betainyl amino tetradecane methane sulfonate] | 38 mN/m | – | – | – | – | – | – | – | – | – | –
4 | CCCCCCCC/C=C\CCCCCCCCNC(=O)C[N+](C)(C)C.CS(=O)(=O)[O-] [GB Oleic amide, (Z)-betainyl amino octadec-9-ene methane sulfonate] | 36 mN/m | 5.5 mN/m | 27.6 ° | 22.6 ° | 46.4 ° | 31.1 ° | 26.8 ° | 18.8 ° | 38.1 ° | 31.3 ° | –
5 | CCCCCCCC/C=C\CCCCCCCCNC(=O)C[N+](C)(C)C.CS(=O)(=O)[O-] [GB Oleic amide C18:1) pure, (Z)-betainyl amino octadec-9-ene methane sulfonate, pure] | – | – | – | – | – | – | – | – | – | – | Foam density (Foamability): 18 g/L; Time t: the time to fill 2 liters (Foamability): 85 s
6 | CCCCCCCCCCCCCCCCCCNC(=O)C[N+](C)(C)C.CS(=O)(=O)[O-] [GB Stearic amide, Betainyl amino octadecane methane sulfonate] | 39 mN/m | 5.2 mN/m | 35.4 ° | 23.1 ° | 39.7 ° | 31.6 ° | 27.1 ° | 19.4 ° | 34.6 ° | 34.3 ° | Initial Viscosity [3, 5]: 120 cP; Viscosity after 15 days [3, 5]: 160 cP; Initial Viscosity [3, 6]: 160 cP; Viscosity after 15 days [3, 6]: 639 cP; Initial Viscosity [3, 7]: 160 cP; Viscosity after 15 days [3, 7]: 807 cP; Initial Viscosity [3, 8]: 2259 cP; Viscosity after 15 days [3, 8]: 3626 cP; Initial Viscosity [3, 9]: 3039 cP; Viscosity after 15 days [3, 9]: 6079 cP; Initial Viscosity [3, 10]: 5279 cP; Viscosity after 15 days [3, 10]: 8851 cP; Bathroom Soap Scum Solubilized [4]: 35%
